Columns and labels:
OVCAR-3 OC cells = assay: OVCAR-3 proliferation assay (cell count, Trypan Blue); type: cell-based; conditions: Homo sapiens, 48 h incubation, read-out: IC50 cell viability OVCAR-3
Experimental: (§1) The methodology for the evaluation of the growth of human MCF-7 breast carcinoma cells was previously described, except that cells were grown for 96 h for IC50 determinations.[66] U-87 MG and OVCAR-3 proliferation assays were performed plating 10^4 cells/cm^2 in a Multiwell 24. The day after, cells were treated with compound 15, and DMSO was used as a control. Cells were counted 48 h later with a Bürker counting chamber, after dilution in TrypanBlue (#T6146 Sigma-Aldrich).
(§2) All experiments were performed multiple times to reach statistical significance, as specified in the figure legends. Statistical analysis was performed using GraphPad Prism version 7.0 for Mac. IC50 values were calculated by using a nonlinear regression formula, using the percentage of cells number and the logarithmic value of drug concentrations. Data were analyzed with analysis of variance (one-way ANOVA test). Data with *p < 0.05 were considered statistically significant.

tubulin = assay: Inhibition of [3H]colchicine binding to tubulin; conditions: inhibitor at 1:5:5 μM
Experimental: The assembly reaction mixtures contained 0.8 M monosodium glutamate (pH 6.6 with HCl in a 2 M stock solution), 10 μM tubulin, 4% (v/v) DMSO, and varying concentrations of the drug. Following a 15 min preincubation at 30 °C, samples were chilled on ice, GTP to 0.4 mM was added, and turbidity development was followed at 350 nm in a temperature-controlled recording spectrophotometer for 20 min at 30 °C. The extent of reaction was measured. Full experimental details were previously described.[63] For the colchicine binding assay, reaction mixtures contained 1.0 μM tubulin, 5.0 μM [^3H]colchicine, and 5.0 or 1.0 μM inhibitor and were incubated for 10 min at 37 °C. Complete details were described previously.[64]

SKOV-3 = assay: In vivo SKOV-3 xenograft, tumor size and tumor tissue analysis; parameters: species or system BALB/C^nu/nu mice
Experimental: Briefly, all 10 week-old female BALB/C^nu/nu mice (24 mice) were purchased from the Shanghai University of Traditional Chinese Medicine with Institutional Animal Care and Use Committee approval in accordance with institutional guidelines. All mice were randomly divided into four groups. In #1 group (4 mice), 1 × 10^8 cells/mL from U-87 MG at the logarithmic growth phase were harvested and inoculated subcutaneously, followed by intraperitoneal injection of 100 μL of 15 (25 mg/kg) every 2 days. In #2 group (4 mice), 1 × 10^8 cells/mL from U-87 MG at the logarithmic growth phase were harvested and inoculated subcutaneously, followed by intraperitoneal injection of 100 μL of saline every 2 days. In #3 group (4 mice), 1 × 10^8 cells/mL from SKOV-3 at the logarithmic growth phase were harvested and inoculated subcutaneously, followed by intraperitoneal injection of 100 μL 15 (25 mg/kg) every 2 days. In #4 group (4 mice), 1 × 10^8 cells/mL from SKOV-3 at the logarithmic growth phase were harvested and inoculated subcutaneously, followed by intraperitoneal injection of 100 μL of saline every 2 days. After continuous feeding for 40 days, the mice were sacrificed, and the tumors were removed. The tumors were weighed, and the volumes were calculated using the following formula: Tumor volume (cm^3) = (ab^2)/2 (a: the longest axis (cm), b: the shortest axis (cm)).
Briefly, fresh tissues were immersed in 4% paraformaldehyde (Sigma-Aldrich) for fixation at room temperature for 30 min. The tissues were then dehydrated in an ethanol gradient, embedded in paraffin, sectioned (thickness: 6 μm), and immersed in xylene for dewaxing. Tissue sections were blocked with immunohistochemical blocking solution (Beyotime Biotechnology Co., Ltd., Zhejiang, China) at 37 °C for 30 min. The blocking solution was then discarded, and the sections were washed three times at room temperature for 5 min, each with immunohistochemical washing solution (Beyotime Biotechnology). Then, primary antibodies (rabbit anti-GPX4 antibody [EPNCIR144] (ab125066), rabbit anti-ferritin heavy chain antibody [EPR18878] (ab183781), and rabbit anti-Ki67 antibody (ab15580), Abcam, MA, USA) were added and incubated at 37 °C for 45 min. After incubation, the antibody solution was discarded, and the sections were washed three times at room temperature for 5 min each with immunohistochemical washing solution (Beyotime Biotechnology). Then, the secondary antibody (goat anti-rabbit IgG H&L (Alexa Fluor 488), Abcam, MA, USA) was added, and the tissues were incubated at 37 °C for 45 min. After incubation, the antibody solution was discarded, and the sections were washed three times at room temperature for 5 min, each with immunohistochemical washing solution (Beyotime Biotechnology). Finally, immunofluorescence blocking solution (Sigma-Aldrich) was added, and the sections were mounted.
According to the instructions of the RNAprep pure Tissue Kit (TIANGEN Biotech (Beijing) China) Co., Ltd., Beijing, China), to about 20 mg of […] tissue specimen was added 800 μL of lysis solution, and the mixture was ground, homogenized, and centrifuged. To the supernatant, 200 μL of chloroform was added, and the mixture was mixed by inverting and centrifuged at 4 °C at 13,400 × g for 15 min. To the supernatant, two volumes of absolute ethanol were added, mixed by inversion, and centrifuged at 4 °C at 13,400 × g for 30 min. Ethanol precipitation and centrifugation of the supernatant were repeated. The RNA pellet was suspended with 500 μL of 75% ethanol and centrifuged at 13,400 × g at 4 °C for 5 min. The supernatant was discarded, the excess liquid was removed, and the pellet was dissolved in 300 μL of DECP water. One microliter of the RNA solution was used to measure the ratio of A260–A280 (generally 1.8–2.0) to determine the purity and approximate concentration of the RNA. […]

U-87 MG GBM cells = assay: U-87 MG proliferation assay (cell count, Trypan Blue); type: cell-based; conditions: Homo sapiens, 48 h incubation, read-out: IC50 cell viability U-87 MG
Experimental: as §1, §2

COc1cc(C(=O)c2cn(-c3ncccn3)cc2-c2ccco2)cc(OC)c1OC [Compound 15, (4-(Furan-2-yl)-1-(pyrimidyl-2-yl)-1H-pyrrol-3-yl)(3,4,5-trimethoxyphenyl)methanone]
IC50 (OVCAR-3 OC cells): 2.85 nM | Inhib. colch. binding 1-5-5 (% ± SD) (tubulin): 88 ± 0.4% | ATP level in tumor tissue vs control (SKOV-3; 25 mg/kg i.p. every 2 days): significantly lower | Fe2+ concentration in tumor tissue vs control (SKOV-3; 25 mg/kg i.p. every 2 days): significantly higher | LPO level in tumor tissue vs control (SKOV-3; 25 mg/kg i.p. every 2 days): appreciably higher | MDA level in tumor tissue vs control (SKOV-3; 25 mg/kg i.p. every 2 days): appreciably higher | T-GSH level in tumor tissue vs control (SKOV-3; 25 mg/kg i.p. every 2 days): significantly lower | lactic acid level in tumor tissue vs control (SKOV-3; 25 mg/kg i.p. every 2 days): appreciably higher | tumor size (volume and weight) vs saline control (SKOV-3; 25 mg/kg i.p. every 2 days, day 40): significantly smaller | CD31 expression in tumor tissue vs control (SKOV-3; immunofluorescence staining): significantly lower expression | FTH1 expression in tumor tissue vs control (SKOV-3; immunofluorescence staining): significantly lower expression | GPX4 expression in tumor tissue vs control (SKOV-3; immunofluorescence staining): significantly lower expression | Ki67 expression in tumor tissue vs control (SKOV-3; immunofluorescence staining): significantly lower expression | IC50 (U-87 MG GBM cells): 10.1 nM

Reference: paper PMC9743090, “Induction of Ferroptosis in Glioblastoma and Ovarian Cancers by a New Pyrrole Tubulin Assembly Inhibitor” (Journal of Medicinal Chemistry, 2022)
